Source: PubChem BioAssay AID2060910 (Molecular Pharmacology Branch, DTP, NCI, 2025)

System: 242566-281-R-J2-PDC complex spheroid viability
Assay: Anticancer human tumor 242566-281-R-J2-PDC patient-derived pancreatic carcinoma cell line growth inhibition [RAS]
Details: for IC50: curve of first compound; for viability, T/C: stronger effect = lower value; active = viability on the fitted dose curve at most 10% of control; inactive = the rest
Summary of the method: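 Agents were tested in combination matrices in half-log decrements from a top concentration at or near clinical Cmax (10 microM if undetermined). Targets were multi-cell spheroids of tumour lines plus HUVEC and MSC stromal cells.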

[1] = second compound 0.000949 µM, first compound 0.0316 µM
[2] = second compound 0.000949 µM, first compound 0.1 µM
[3] = second compound 0.000949 µM, first compound 0.316 µM
[4] = second compound 0.000949 µM, first compound 1 µM
[5] = second compound 0.000949 µM, first compound 3.16 µM
[6] = second compound 0.000949 µM, first compound 10 µM
[7] = second compound 0.003 µM, first compound 0.0316 µM
[8] = second compound 0.003 µM, first compound 0.1 µM
[9] = second compound 0.003 µM, first compound 0.316 µM
[10] = second compound 0.003 µM, first compound 1 µM
[11] = second compound 0.003 µM, first compound 3.16 µM
[12] = second compound 0.003 µM, first compound 10 µM
[13] = second compound 0.00949 µM, first compound 0.0316 µM
[14] = second compound 0.00949 µM, first compound 0.1 µM
[15] = second compound 0.00949 µM, first compound 0.316 µM
[16] = second compound 0.00949 µM, first compound 1 µM
[17] = second compound 0.00949 µM, first compound 3.16 µM
[18] = second compound 0.00949 µM, first compound 10 µM
[19] = second compound 0.03 µM, first compound 0.0316 µM
[20] = second compound 0.03 µM, first compound 0.1 µM
[21] = second compound 0.03 µM, first compound 0.316 µM
[22] = second compound 0.03 µM, first compound 1 µM
[23] = second compound 0.03 µM, first compound 3.16 µM
[24] = second compound 0.03 µM, first compound 10 µM
[25] = second compound 0.0949 µM, first compound 0.0316 µM
[26] = second compound 0.0949 µM, first compound 0.1 µM
[27] = second compound 0.0949 µM, first compound 0.316 µM
[28] = second compound 0.0949 µM, first compound 1 µM
[29] = second compound 0.0949 µM, first compound 3.16 µM
[30] = second compound 0.0949 µM, first compound 10 µM
[31] = second compound 0.3 µM, first compound 0.0316 µM
[32] = second compound 0.3 µM, first compound 0.1 µM
[33] = second compound 0.3 µM, first compound 0.316 µM
[34] = second compound 0.3 µM, first compound 1 µM
[35] = second compound 0.3 µM, first compound 3.16 µM
[36] = second compound 0.3 µM, first compound 10 µM
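Note: spheroids exposed to compound for 7 days before readout.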
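Throughout, for viability, T/C: 100% = DMSO vehicle control wells.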

CC1(O)CCCC1n1c(=O)c(C(F)F)cc2cnc(NC3CCN(S(C)(=O)=O)CC3)nc21 (stereo unspecified) + CCn1c(-c2cccnc2C(C)OC)c2c3cc(ccc31)N1CCOC(CC(NC(=O)C(C(C)C)N(C)C(=O)C3(F)CCN(C(=O)C#CC(C)(C)N(C)C)CC3)C(=O)N3CCCC(N3)C(=O)OCC(C)(C)C2)C1
> 10000 nM: IC50 (second compound 0.03 µM) | IC50 (second compound 0.0949 µM)
6330 nM: IC50 (second compound 0.3 µM)
inactive: viability, T/C [1] 86.4% | viability, T/C [2] 70.1% | viability, T/C [3] 63.5% | viability, T/C [4] 94.3% | viability, T/C [5] 114% | viability, T/C [6] 26.9% | viability, T/C [7] 77.3% | viability, T/C [8] 63.5% | viability, T/C [9] 71.9% | viability, T/C [10] 91.5% | viability, T/C [11] 110% | viability, T/C [12] 23.6% | viability, T/C [13] 84.6% | viability, T/C [14] 62.4% | viability, T/C [15] 70.3% | viability, T/C [16] 86.8% | viability, T/C [17] 95.9% | viability, T/C [18] 41.2% | viability, T/C [19] 78.6% | viability, T/C [20] 82% | viability, T/C [21] 83.9% | viability, T/C [22] 85.8% | viability, T/C [23] 84.9% | viability, T/C [24] 53.1% | viability, T/C [25] 69.1% | viability, T/C [26] 62.8% | viability, T/C [27] 69.6% | viability, T/C [28] 90% | viability, T/C [29] 90% | viability, T/C [30] 54.4% | viability, T/C [31] 64.8% | viability, T/C [32] 67.4% | viability, T/C [33] 71.6% | viability, T/C [34] 78.9% | viability, T/C [35] 101% | viability, T/C [36] 32.6%
6360 nM: IC50 (second compound 0.000949 µM)
7700 nM: IC50 (second compound 0.00949 µM)
5990 nM: IC50 (second compound 0.003 µM)

CCC(CC)c1cc(NC2CCC(N)C2)n2nccc2n1 (stereo unspecified) + CCn1c(-c2cccnc2C(C)OC)c2c3cc(ccc31)N1CCOC(CC(NC(=O)C(C(C)C)N(C)C(=O)C3(F)CCN(C(=O)C#CC(C)(C)N(C)C)CC3)C(=O)N3CCCC(N3)C(=O)OCC(C)(C)C2)C1
2750 nM: IC50 (second compound 0.003 µM)
2760 nM: IC50 (second compound 0.000949 µM)
1670 nM: IC50 (second compound 0.0949 µM)
1870 nM: IC50 (second compound 0.03 µM)
1500 nM: IC50 (second compound 0.3 µM)
active: viability, T/C [6] 1.81% | viability, T/C [12] 1.8% | viability, T/C [18] 2.19% | viability, T/C [24] 2.92% | viability, T/C [30] 3.14% | viability, T/C [36] 2.62%
inactive: viability, T/C [1] 89.3% | viability, T/C [2] 91.4% | viability, T/C [3] 91.1% | viability, T/C [4] 97.8% | viability, T/C [5] 44.2% | viability, T/C [7] 97.9% | viability, T/C [8] 112% | viability, T/C [9] 102% | viability, T/C [10] 105% | viability, T/C [11] 42.4% | viability, T/C [13] 107% | viability, T/C [14] 77.5% | viability, T/C [15] 86.7% | viability, T/C [16] 87.6% | viability, T/C [17] 32% | viability, T/C [19] 93.3% | viability, T/C [20] 86.3% | viability, T/C [21] 89.9% | viability, T/C [22] 84.3% | viability, T/C [23] 21.4% | viability, T/C [25] 106% | viability, T/C [26] 96.6% | viability, T/C [27] 90% | viability, T/C [28] 80.5% | viability, T/C [29] 12.4% | viability, T/C [31] 82.4% | viability, T/C [32] 89.8% | viability, T/C [33] 84.7% | viability, T/C [34] 69.2% | viability, T/C [35] 15.2%
2180 nM: IC50 (second compound 0.00949 µM)

CCN1CCN(Cc2ccc(Nc3ncc(F)c(-c4cc(F)c5nc(C)n(C(C)C)c5c4)n3)nc2)CC1 + CCn1c(-c2cccnc2C(C)OC)c2c3cc(ccc31)N1CCOC(CC(NC(=O)C(C(C)C)N(C)C(=O)C3(F)CCN(C(=O)C#CC(C)(C)N(C)C)CC3)C(=O)N3CCCC(N3)C(=O)OCC(C)(C)C2)C1
inactive: viability, T/C (second compound 0.000949 µM, first compound 0.00316 µM) 102% | viability, T/C (second compound 0.000949 µM, first compound 0.01 µM) 92.2% | viability, T/C [1] 78.6% | viability, T/C [2] 88.5% | viability, T/C [3] 102% | viability, T/C [4] 99.6% | viability, T/C (second compound 0.003 µM, first compound 0.00316 µM) 109% | viability, T/C (second compound 0.003 µM, first compound 0.01 µM) 93.5% | viability, T/C [7] 81.5% | viability, T/C [8] 88.2% | viability, T/C [9] 103% | viability, T/C [10] 94.7% | viability, T/C (second compound 0.00949 µM, first compound 0.00316 µM) 102% | viability, T/C (second compound 0.00949 µM, first compound 0.01 µM) 99.4% | viability, T/C [13] 93.1% | viability, T/C [14] 86.5% | viability, T/C [15] 98.4% | viability, T/C [16] 109% | viability, T/C (second compound 0.03 µM, first compound 0.00316 µM) 97.5% | viability, T/C (second compound 0.03 µM, first compound 0.01 µM) 94.7% | viability, T/C [19] 85.8% | viability, T/C [20] 97.2% | viability, T/C [21] 88.2% | viability, T/C [22] 117% | viability, T/C (second compound 0.0949 µM, first compound 0.00316 µM) 83.8% | viability, T/C (second compound 0.0949 µM, first compound 0.01 µM) 92.8% | viability, T/C [25] 93.4% | viability, T/C [26] 93.1% | viability, T/C [27] 83.8% | viability, T/C [28] 107% | viability, T/C (second compound 0.3 µM, first compound 0.00316 µM) 83.5% | viability, T/C (second compound 0.3 µM, first compound 0.01 µM) 79.2% | viability, T/C [31] 79.5% | viability, T/C [32] 77.7% | viability, T/C [33] 93% | viability, T/C [34] 116%
> 1000 nM: IC50 (second compound 0.000949 µM) | IC50 (second compound 0.003 µM) | IC50 (second compound 0.00949 µM) | IC50 (second compound 0.03 µM) | IC50 (second compound 0.0949 µM) | IC50 (second compound 0.3 µM)
